From ChEMBL document CHEMBL1136242, “Arachidonylsulfonyl derivatives as cannabinoid CB1 receptor and fatty acid amide hydrolase inhibitors” (Bioorg Med Chem Lett, 2003)
pIC50: −log10 of the molar value.

What was measured:
[1] = biological target: T1, Fatty-acid amide hydrolase 1 (Mus musculus, UniProt O08914); test: Inhibitory potency of Fatty-acid amide hydrolase with Mouse brain membrane
T1 sequence (O08914 whole entry): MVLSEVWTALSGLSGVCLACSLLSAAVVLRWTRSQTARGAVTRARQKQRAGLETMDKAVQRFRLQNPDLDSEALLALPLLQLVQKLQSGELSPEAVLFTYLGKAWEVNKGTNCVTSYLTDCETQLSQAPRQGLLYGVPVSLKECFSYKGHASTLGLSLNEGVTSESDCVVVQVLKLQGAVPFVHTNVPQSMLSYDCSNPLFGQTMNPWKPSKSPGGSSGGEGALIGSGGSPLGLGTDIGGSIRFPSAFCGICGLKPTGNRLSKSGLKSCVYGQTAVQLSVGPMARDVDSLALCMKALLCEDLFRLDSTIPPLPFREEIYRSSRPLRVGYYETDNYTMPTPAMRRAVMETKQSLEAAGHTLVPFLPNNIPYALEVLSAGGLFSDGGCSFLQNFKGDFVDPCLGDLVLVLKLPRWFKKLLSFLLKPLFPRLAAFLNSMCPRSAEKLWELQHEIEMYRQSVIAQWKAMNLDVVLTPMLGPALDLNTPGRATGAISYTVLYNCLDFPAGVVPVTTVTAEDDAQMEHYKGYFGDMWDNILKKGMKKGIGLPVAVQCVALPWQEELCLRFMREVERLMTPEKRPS

Cannabinoid receptor 1 [2] = biological target: Cannabinoid receptor 1 (Rattus norvegicus, UniProt P20272); test: Binding affinity towards Cannabinoid receptor 1 was determined using [3H]-CP- cannabinoid as radioligand with rat brain membrane
[3] = biological target: T2, Fatty-acid amide hydrolase 1 (Rattus norvegicus, UniProt P97612); test: Inhibitory potency of Fatty-acid amide hydrolase with rat brain membrane
T2 sequence (P97612 whole entry): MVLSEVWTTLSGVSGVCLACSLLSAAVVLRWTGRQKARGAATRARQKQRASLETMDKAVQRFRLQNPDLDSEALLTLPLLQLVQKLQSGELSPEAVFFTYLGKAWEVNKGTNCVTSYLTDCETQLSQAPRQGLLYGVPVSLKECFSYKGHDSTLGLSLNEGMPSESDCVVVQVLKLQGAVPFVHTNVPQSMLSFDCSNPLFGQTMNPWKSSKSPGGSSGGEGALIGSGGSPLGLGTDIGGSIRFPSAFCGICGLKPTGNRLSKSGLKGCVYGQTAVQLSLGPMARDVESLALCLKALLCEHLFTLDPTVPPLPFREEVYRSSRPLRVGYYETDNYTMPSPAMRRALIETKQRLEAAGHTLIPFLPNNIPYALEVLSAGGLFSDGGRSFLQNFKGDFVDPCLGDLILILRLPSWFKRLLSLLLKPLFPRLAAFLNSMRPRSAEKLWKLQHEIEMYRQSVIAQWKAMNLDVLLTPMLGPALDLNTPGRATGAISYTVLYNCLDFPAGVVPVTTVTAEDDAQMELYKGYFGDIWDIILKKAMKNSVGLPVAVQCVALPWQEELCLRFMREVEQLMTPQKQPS

Cannabinoid receptor 1 [4] = biological target: Cannabinoid receptor 1 (Mus musculus, UniProt P47746); test: Binding affinity towards Cannabinoid receptor 1 was determined using [3H]-CP- cannabinoid as radioligand with mouse brain membrane in the presence of PMSF
[5] = biological target: T1, Fatty-acid amide hydrolase 1; test: Inhibitory potency of Fatty-acid amide hydrolase with Mouse brain membrane in the presence of PMSF

Sequence of Cannabinoid receptor 1 (Mus musculus, UniProt P47746) (P47746 whole entry): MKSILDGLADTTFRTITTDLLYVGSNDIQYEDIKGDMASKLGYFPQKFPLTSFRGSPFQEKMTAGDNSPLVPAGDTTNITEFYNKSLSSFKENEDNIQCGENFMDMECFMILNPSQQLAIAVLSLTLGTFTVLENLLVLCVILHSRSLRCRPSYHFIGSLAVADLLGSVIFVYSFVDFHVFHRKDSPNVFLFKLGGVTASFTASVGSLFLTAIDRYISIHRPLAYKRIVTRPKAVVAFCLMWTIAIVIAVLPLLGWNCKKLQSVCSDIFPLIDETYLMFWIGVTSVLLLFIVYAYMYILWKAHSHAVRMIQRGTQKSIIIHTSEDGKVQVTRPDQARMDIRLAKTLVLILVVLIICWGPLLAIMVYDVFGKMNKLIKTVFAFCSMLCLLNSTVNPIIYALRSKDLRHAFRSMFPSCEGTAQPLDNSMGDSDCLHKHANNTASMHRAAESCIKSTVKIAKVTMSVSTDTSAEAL
Sequence of Cannabinoid receptor 1 (Rattus norvegicus, UniProt P20272) (P20272 whole entry): as the sequence (P47746 whole entry) above, with D95E counted along it

| Structure (SMILES) | pIC50 [1] | pIC50 (Cannabinoid receptor 1 [2]) | pIC50 [3] | pIC50 (Cannabinoid receptor 1 [4]) | pIC50 [5] |
| --- | --- | --- | --- | --- | --- |
| CCCCC/C=C\C/C=C\C/C=C\C/C=C\CCCCS(=O)(=O)F | 9.96 |  |  |  |  |
| CCCCCCCCCCCCS(=O)(=O)F [DODECANESULFONYL FLUORIDE] | 8.70 | 7.74 | 8.52 |  |  |
| CCCCC/C=C\C/C=C\C/C=C\C/C=C\CCCCS(=O)(=O)NCCO |  |  |  | < 4.00 | ~5.00 |
